Measured values: patent EP0726263A2, “Herbicidal (1,3,4)oxadiazoles and thiadiazoles” (American Cyanamid Company, priority 1995, dated 1996)

Columns and labels:
Format in all cases: in vivo
[1] = tested on: Zea mays; test: Herbicidal activity, preemergence test; settings: pre; sprayed onto soil, 800 g of active material per hectare; evaluated 3 weeks after treatment
Outline: (§1)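 Spray dose 800 g a.i./ha in 900 L/ha; acetone stock with 0.4% Triton X-155, water-diluted. Pre: sown loam soil, read at 3 wk. Post: seedling plants, read at 2 wk. Visual 0-9 rating vs untreated.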

[2] = tested on: Galium aparine; test: Herbicidal activity, preemergence test; settings: pre; sprayed onto soil, 800 g of active material per hectare; evaluated 3 weeks after treatment
Outline: as §1

[3] = tested on: Ambrosia artemisifolia; test: Herbicidal activity, preemergence test; settings: pre; sprayed onto soil, 800 g of active material per hectare; evaluated 3 weeks after treatment
Outline: as §1

[4] = tested on: Papaver rhoeas; test: Herbicidal activity, preemergence test; settings: pre; sprayed onto soil, 800 g of active material per hectare; evaluated 3 weeks after treatment
Outline: as §1

[5] = tested on: Chenopodium album; test: Herbicidal activity, preemergence test; settings: pre; sprayed onto soil, 800 g of active material per hectare; evaluated 3 weeks after treatment
Outline: as §1

[6] = tested on: Veronica persica; test: Herbicidal activity, preemergence test; settings: pre; sprayed onto soil, 800 g of active material per hectare; evaluated 3 weeks after treatment
Outline: as §1

[7] = tested on: Amaranthus retroflexus; test: Herbicidal activity, preemergence test; settings: pre; sprayed onto soil, 800 g of active material per hectare; evaluated 3 weeks after treatment
Outline: as §1

[8] = tested on: Ipomoea hederacea; test: Herbicidal activity, preemergence test; settings: pre; sprayed onto soil, 800 g of active material per hectare; evaluated 3 weeks after treatment
Outline: as §1

[9] = tested on: Stellaria media; test: Herbicidal activity, preemergence test; settings: pre; sprayed onto soil, 800 g of active material per hectare; evaluated 3 weeks after treatment
Outline: as §1

[10] = tested on: Lamium purpureum; test: Herbicidal activity, preemergence test; settings: pre; sprayed onto soil, 800 g of active material per hectare; evaluated 3 weeks after treatment
Outline: as §1

[11] = tested on: Triticum aestivum; test: Herbicidal activity, preemergence test; settings: pre; sprayed onto soil, 800 g of active material per hectare; evaluated 3 weeks after treatment
Outline: as §1

[12] = tested on: Matricaria inodora; test: Herbicidal activity, preemergence test; settings: pre; sprayed onto soil, 800 g of active material per hectare; evaluated 3 weeks after treatment
Outline: as §1

[13] = tested on: Abutilon theophrasti; test: Herbicidal activity, preemergence test; settings: pre; sprayed onto soil, 800 g of active material per hectare; evaluated 3 weeks after treatment
Outline: as §1

[14] = tested on: Glycine max; test: Herbicidal activity, preemergence test; settings: pre; sprayed onto soil, 800 g of active material per hectare; evaluated 3 weeks after treatment
Outline: as §1

[15] = tested on: Alopecurus myosuroides; test: Herbicidal activity, preemergence test; settings: pre; sprayed onto soil, 800 g of active material per hectare; evaluated 3 weeks after treatment
Outline: as §1

[16] = tested on: Hordeum vulgare; test: Herbicidal activity, preemergence test; settings: pre; sprayed onto soil, 800 g of active material per hectare; evaluated 3 weeks after treatment
Outline: as §1

[17] = tested on: Gossypium hirsutum; test: Herbicidal activity, preemergence test; settings: pre; sprayed onto soil, 800 g of active material per hectare; evaluated 3 weeks after treatment
Outline: as §1

[18] = tested on: Setaria viridis; test: Herbicidal activity, preemergence test; settings: pre; sprayed onto soil, 800 g of active material per hectare; evaluated 3 weeks after treatment
Outline: as §1

[19] = tested on: Zea mays; test: Herbicidal activity, postemergence test; settings: post; sprayed onto seedling plants, 800 g of active material per hectare; evaluated 2 weeks after treatment
Outline: as §1

[20] = tested on: Galium aparine; test: Herbicidal activity, postemergence test; settings: post; sprayed onto seedling plants, 800 g of active material per hectare; evaluated 2 weeks after treatment
Outline: as §1

[21] = tested on: Ambrosia artemisifolia; test: Herbicidal activity, postemergence test; settings: post; sprayed onto seedling plants, 800 g of active material per hectare; evaluated 2 weeks after treatment
Outline: as §1

[22] = tested on: Papaver rhoeas; test: Herbicidal activity, postemergence test; settings: post; sprayed onto seedling plants, 800 g of active material per hectare; evaluated 2 weeks after treatment
Outline: as §1

[23] = tested on: Chenopodium album; test: Herbicidal activity, postemergence test; settings: post; sprayed onto seedling plants, 800 g of active material per hectare; evaluated 2 weeks after treatment
Outline: as §1

[24] = tested on: Veronica persica; test: Herbicidal activity, postemergence test; settings: post; sprayed onto seedling plants, 800 g of active material per hectare; evaluated 2 weeks after treatment
Outline: as §1

[25] = tested on: Amaranthus retroflexus; test: Herbicidal activity, postemergence test; settings: post; sprayed onto seedling plants, 800 g of active material per hectare; evaluated 2 weeks after treatment
Outline: as §1

[26] = tested on: Ipomoea hederacea; test: Herbicidal activity, postemergence test; settings: post; sprayed onto seedling plants, 800 g of active material per hectare; evaluated 2 weeks after treatment
Outline: as §1

[27] = tested on: Stellaria media; test: Herbicidal activity, postemergence test; settings: post; sprayed onto seedling plants, 800 g of active material per hectare; evaluated 2 weeks after treatment
Outline: as §1

[28] = tested on: Lamium purpureum; test: Herbicidal activity, postemergence test; settings: post; sprayed onto seedling plants, 800 g of active material per hectare; evaluated 2 weeks after treatment
Outline: as §1

[29] = tested on: Triticum aestivum; test: Herbicidal activity, postemergence test; settings: post; sprayed onto seedling plants, 800 g of active material per hectare; evaluated 2 weeks after treatment
Outline: as §1

[30] = tested on: Matricaria inodora; test: Herbicidal activity, postemergence test; settings: post; sprayed onto seedling plants, 800 g of active material per hectare; evaluated 2 weeks after treatment
Outline: as §1

[31] = tested on: Abutilon theophrasti; test: Herbicidal activity, postemergence test; settings: post; sprayed onto seedling plants, 800 g of active material per hectare; evaluated 2 weeks after treatment
Outline: as §1

[32] = tested on: Glycine max; test: Herbicidal activity, postemergence test; settings: post; sprayed onto seedling plants, 800 g of active material per hectare; evaluated 2 weeks after treatment
Outline: as §1

[33] = tested on: Alopecurus myosuroides; test: Herbicidal activity, postemergence test; settings: post; sprayed onto seedling plants, 800 g of active material per hectare; evaluated 2 weeks after treatment
Outline: as §1

[34] = tested on: Hordeum vulgare; test: Herbicidal activity, postemergence test; settings: post; sprayed onto seedling plants, 800 g of active material per hectare; evaluated 2 weeks after treatment
Outline: as §1

[35] = tested on: Gossypium hirsutum; test: Herbicidal activity, postemergence test; settings: post; sprayed onto seedling plants, 800 g of active material per hectare; evaluated 2 weeks after treatment
Outline: as §1

[36] = tested on: Setaria viridis; test: Herbicidal activity, postemergence test; settings: post; sprayed onto seedling plants, 800 g of active material per hectare; evaluated 2 weeks after treatment
Outline: as §1

Row | Compound | ZEAMX control rating (0-9) [1] | GALAP control rating (0-9) [2] | AMBEL control rating (0-9) [3] | PAPRH control rating (0-9) [4] | CHEAL control rating (0-9) [5] | VERPE control rating (0-9) [6] | AMARE control rating (0-9) [7] | IPOHE control rating (0-9) [8] | STEME control rating (0-9) [9] | LAMPU control rating (0-9) [10] | TRZAW control rating (0-9) [11] | MATIN control rating (0-9) [12] | ABUTH control rating (0-9) [13] | GLXMA control rating (0-9) [14] | ALOMY control rating (0-9) [15] | HORVW control rating (0-9) [16] | GOSHI control rating (0-9) [17] | SETVI control rating (0-9) [18] | ZEAMX control rating (0-9) [19] | GALAP control rating (0-9) [20] | other results
1 | C[C@H](NC(=O)c1nnc(-c2ccc(F)cc2)o1)c1ccccc1 [Example 7] | 0 (no effect) | 1 (trace effect) | 0 (no effect) | 9 (complete kill) | 8 (approaching complete kill) | 9 (complete kill) | 9 (complete kill) | 0 (no effect) | 9 (complete kill) | 9 (complete kill) | 0 (no effect) | 9 (complete kill) | 8 (approaching complete kill) | 1 (trace effect) | 4 (injury) | 0 (no effect) | 0 (no effect) | 9 (complete kill) | 2 (slight effect) | 7 (good herbicidal effect) | AMBEL control rating (0-9) [21]: 8 (approaching complete kill); PAPRH control rating (0-9) [22]: 9 (complete kill); CHEAL control rating (0-9) [23]: 9 (complete kill); VERPE control rating (0-9) [24]: 9 (complete kill); AMARE control rating (0-9) [25]: 9 (complete kill); IPOHE control rating (0-9) [26]: 9 (complete kill); STEME control rating (0-9) [27]: 9 (complete kill); LAMPU control rating (0-9) [28]: 9 (complete kill); TRZAW control rating (0-9) [29]: 4 (injury); MATIN control rating (0-9) [30]: 9 (complete kill); ABUTH control rating (0-9) [31]: 9 (complete kill); GLXMA control rating (0-9) [32]: 8 (approaching complete kill); ALOMY control rating (0-9) [33]: 5 (definite injury); HORVW control rating (0-9) [34]: 5 (definite injury); GOSHI control rating (0-9) [35]: 9 (complete kill); SETVI control rating (0-9) [36]: 9 (complete kill)
2 | C[C@H](NC(=O)c1nnc(-c2cc(Cl)cc(Cl)c2)o1)c1ccccc1 [Example 28] | 0 (no effect) | 0 (no effect) | 0 (no effect) | 0 (no effect) | 0 (no effect) | 0 (no effect) | 0 (no effect) | 0 (no effect) | 0 (no effect) | 0 (no effect) | 0 (no effect) | 0 (no effect) | 0 (no effect) | 0 (no effect) | 0 (no effect) | 0 (no effect) | 0 (no effect) | 0 (no effect) | 0 (no effect) | 0 (no effect) | AMBEL control rating (0-9) [21]: 0 (no effect); PAPRH control rating (0-9) [22]: 0 (no effect); CHEAL control rating (0-9) [23]: 2 (slight effect); VERPE control rating (0-9) [24]: 0 (no effect); AMARE control rating (0-9) [25]: 0 (no effect); IPOHE control rating (0-9) [26]: 0 (no effect); STEME control rating (0-9) [27]: 0 (no effect); LAMPU control rating (0-9) [28]: 0 (no effect); TRZAW control rating (0-9) [29]: 0 (no effect); MATIN control rating (0-9) [30]: 0 (no effect); ABUTH control rating (0-9) [31]: 0 (no effect); GLXMA control rating (0-9) [32]: 2 (slight effect); ALOMY control rating (0-9) [33]: 0 (no effect); HORVW control rating (0-9) [34]: 0 (no effect); GOSHI control rating (0-9) [35]: 0 (no effect); SETVI control rating (0-9) [36]: 0 (no effect)
3 | C[C@H](NC(=O)c1nnc(-c2ccc(C(F)(F)F)cc2)o1)c1ccccc1 [Example 23] | 1 (trace effect) | 0 (no effect) | 0 (no effect) | 9 (complete kill) | 8 (approaching complete kill) | 9 (complete kill) | 9 (complete kill) | 0 (no effect) | 8 (approaching complete kill) | 7 (good herbicidal effect) | 0 (no effect) | 8 (approaching complete kill) | 5 (definite injury) | 0 (no effect) | 4 (injury) | 0 (no effect) | 0 (no effect) | 8 (approaching complete kill) | 3 (moderate effect) | 7 (good herbicidal effect) | AMBEL control rating (0-9) [21]: 8 (approaching complete kill); PAPRH control rating (0-9) [22]: 8 (approaching complete kill); CHEAL control rating (0-9) [23]: 9 (complete kill); VERPE control rating (0-9) [24]: 9 (complete kill); AMARE control rating (0-9) [25]: 9 (complete kill); IPOHE control rating (0-9) [26]: 8 (approaching complete kill); STEME control rating (0-9) [27]: 9 (complete kill); LAMPU control rating (0-9) [28]: 9 (complete kill); TRZAW control rating (0-9) [29]: 3 (moderate effect); MATIN control rating (0-9) [30]: 8 (approaching complete kill); ABUTH control rating (0-9) [31]: 9 (complete kill); GLXMA control rating (0-9) [32]: 5 (definite injury); ALOMY control rating (0-9) [33]: 3 (moderate effect); HORVW control rating (0-9) [34]: 4 (injury); GOSHI control rating (0-9) [35]: 9 (complete kill); SETVI control rating (0-9) [36]: 9 (complete kill)
